Target: T1, Cbl-b (Homo sapiens, UniProt Q13191)
T1 construct: Cbl-b-HiBit KI Jurkat Cells were purchased from Promega; host or cells: Cbl-b-HiBiT knock-in Jurkat cells
Assay: Cbl-b Degradation Method B (Nano-Glo HiBiT lytic detection)
Format: cell-based
Conditions: Cbl-b-HiBit KI Jurkat Cells, incubated at least 6-24 hours; for DC50: half maximal degradation, read-out: Cbl-b Degredation Method B IC50; for Dmax: maximum degradation observed, read-out: Cbl-b Degredation Method B Dmax (%)
Summary of the method: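 Cbl-b-HiBiT knock-in Jurkat cells (20,000/well) were treated after ~24 h plating with an 11-point 1:3 series for 6-24 h at 37° C. Remaining Cbl-b measured by Nano-Glo HiBiT lytic luminescence. DC50 and Dmax expressed as % of control.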

T1 sequence (Q13191 whole entry): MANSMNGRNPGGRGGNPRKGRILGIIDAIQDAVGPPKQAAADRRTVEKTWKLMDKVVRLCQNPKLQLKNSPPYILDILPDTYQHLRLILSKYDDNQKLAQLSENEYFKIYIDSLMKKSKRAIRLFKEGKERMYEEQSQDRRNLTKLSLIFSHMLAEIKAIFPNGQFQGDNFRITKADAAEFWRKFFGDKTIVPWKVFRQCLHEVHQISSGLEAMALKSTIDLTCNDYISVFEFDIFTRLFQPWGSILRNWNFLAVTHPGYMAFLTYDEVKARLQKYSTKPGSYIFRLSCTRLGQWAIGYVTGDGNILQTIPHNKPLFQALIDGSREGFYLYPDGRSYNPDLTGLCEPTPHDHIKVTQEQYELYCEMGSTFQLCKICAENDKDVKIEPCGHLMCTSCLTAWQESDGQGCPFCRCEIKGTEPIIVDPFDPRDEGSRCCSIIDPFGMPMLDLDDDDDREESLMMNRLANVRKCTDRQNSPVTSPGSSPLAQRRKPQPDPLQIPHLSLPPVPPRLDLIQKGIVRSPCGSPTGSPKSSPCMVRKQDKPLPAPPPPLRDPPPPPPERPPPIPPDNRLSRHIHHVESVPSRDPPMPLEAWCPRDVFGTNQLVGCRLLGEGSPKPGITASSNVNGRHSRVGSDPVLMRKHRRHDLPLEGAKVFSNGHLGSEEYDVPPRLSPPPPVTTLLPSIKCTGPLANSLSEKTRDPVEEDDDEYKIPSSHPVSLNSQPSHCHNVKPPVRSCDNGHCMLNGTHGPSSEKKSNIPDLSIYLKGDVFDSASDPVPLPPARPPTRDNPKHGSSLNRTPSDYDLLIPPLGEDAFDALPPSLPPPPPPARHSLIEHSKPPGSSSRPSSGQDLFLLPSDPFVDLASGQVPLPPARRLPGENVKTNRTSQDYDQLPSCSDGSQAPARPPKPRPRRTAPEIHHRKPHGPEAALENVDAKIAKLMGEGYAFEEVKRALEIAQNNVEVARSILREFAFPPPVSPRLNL

| DC50 | Dmax | Compound |
| --- | --- | --- |
| > 500 nM | – | COc1ccc(N2CCC(CN3CCN(Cc4cc5c(c(C(F)(F)F)c4)CN(c4cccc(C6(Cc7nncn7C)COC6)c4)C5=O)CC3)CC2)cc1C(=O)NC1CCC(=O)NC1=O (centres unmarked) [Example 56, N-(2,6-dioxopiperidin-3-yl)-2-methoxy-5-{4-[(4-{[2-(3-{3-[(4-methyl-4H-1,2,4-triazol-3-yl)methyl]oxetan-3-yl}phenyl)-3-oxo-7-(trifluoromethyl)-2,3-dihydro-1H-isoindol-5-yl]methyl}piperazin-1-yl)methyl]piperidin-1-yl}benzamide] |
| > 500 nM | – | Cn1cnnc1CC1(c2cccc(-n3cc4c(C(F)(F)F)cc(CN5CCC[C@H](CN6CCC[C@@H](OC7CCN(c8ccc9c(c8F)CN(C8CCC(=O)NC8=O)C9=O)CC7)C6)C5)cc4n3)c2)COC1 (stereo partly drawn) [Example 297, 3-[4-fluoro-5-(4-{[(3R)-1-{[(3S)-1-{[2-(3-{3-[(4-methyl-4H-1,2,4-triazol-3-yl)methyl]oxetan-3-yl}phenyl)-4-(trifluoromethyl)-2H-indazol-6-yl]methyl}piperidin-3-yl]methyl}piperidin-3-yl]oxy}piperidin-1-yl)-1-oxo-2,3-dihydro-1H-isoindol-2-yl]piperidine-2,6-dione] |
| > 500 nM | – | CC1c2nc(N3CCC(O[C@H]4CC[C@H](CN5CCN(Cc6cc(C(F)(F)F)c7cn(-c8cccc(C9(Cc%10nncn%10C)CC9)c8)nc7c6)C(C)(C)C5)CC4)CC3)ccc2C(=O)N1C1CCC(=O)NC1=O (relative stereo) [Example 253, rel-3-[7-methyl-5-oxo-2-(4-{[(1r,4r)-4-[(3,3-dimethyl-4-{[2-(3-{1-[(4-methyl-4H-1,2,4-triazol-3-yl)methyl]cyclopropyl}phenyl)-4-(trifluoromethyl)-2H-indazol-6-yl]methyl}piperazin-1-yl)methyl]cyclohexyl]oxy}piperidin-1-yl)-5H,6H,7H-pyrrolo[3,4-b]pyridin-6-yl]piperidine-2,6-dione] |
| > 500 nM | – | Cn1cnnc1CC1(c2cccc(-n3cc4c(C(F)(F)F)cc(CN5CCC[C@H](CN6CCC[C@H](OC7CCN(c8ccc9c(c8F)CN(C8CCC(=O)NC8=O)C9=O)CC7)C6)C5)cc4n3)c2)COC1 (stereo partly drawn) [Example 258, 3-[4-fluoro-5-(4-{[(3S)-1-{[(3S)-1-{[2-(3-{3-[(4-methyl-4H-1,2,4-triazol-3-yl)methyl]oxetan-3-yl}phenyl)-4-(trifluoromethyl)-2H-indazol-6-yl]methyl}piperidin-3-yl]methyl}piperidin-3-yl]oxy}piperidin-1-yl)-1-oxo-2,3-dihydro-1H-isoindol-2-yl]piperidine-2,6-dione] |
| < 5 nM | > 70% | Cn1cnnc1CC1(c2cccc(N3Cc4c(cc(CN5CCC[C@H](CN6CCN(C[C@H]7CC[C@@H](OC8CCN(c9ccc%10c(c9F)CN(C9CCC(=O)NC9=O)C%10=O)CC8)CC7)CC6(C)C)C5)cc4C(F)(F)F)C3=O)c2)CCC1 (stereo partly drawn) [Example 270, 3-[4-fluoro-1-oxo-5-(4-{[(1r,4r)-4-[(3,3-dimethyl-4-{[(3S)-1-{[2-(3-{1-[(4-methyl-4H-1,2,4-triazol-3-yl)methyl]cyclobutyl}phenyl)-3-oxo-7-(trifluoromethyl)-2,3-dihydro-1H-isoindol-5-yl]methyl}piperidin-3-yl]methyl}piperazin-1-yl)methyl]cyclohexyl]oxy}piperidin-1-yl)-2,3-dihydro-1H-isoindol-2-yl]piperidine-2,6-dione] |
| > 500 nM | – | Cc1cc(N2C[C@H]3C[C@@H]2CN3CC2CCC3(CC2)CN(c2cc4c(c(C(F)(F)F)c2)CN(c2cccc([C@]5(Cc6nncn6C)C[C@@H](C#N)C5)c2)C4=O)C3)c(F)c2c1C(=O)N(C1CCC(=O)NC1=O)C2 (stereo partly drawn) [Example 150, 3-[3-[6-[7-[[(1R,4R)-5-[2-(2,6-dioxo-3-piperidyl)-4-fluoro-7-methyl-1-oxo-isoindolin-5-yl]-2,5-diazabicyclo [2.2.1]heptan-2-yl]methyl]-2-azaspiro [3.5]nonan-2-yl]-1-oxo-4-(trifluoromethyl)isoindolin-2-yl]phenyl]-3-[(4-methyl-1,2,4-triazol-3-yl)methyl]cyclobutanecarbonitrile] |
| > 500 nM | – | Cn1cnnc1CC1(c2cccc(-n3cc4ccc(CN5CCC[C@H](CN6CCN(C[C@H]7CC[C@H](OC8CCN(c9ccc%10c(c9F)CN(C9CCC(=O)NC9=O)C%10=O)CC8)CC7)CC6)C5)cc4n3)c2)COC1 (stereo partly drawn) [Example 147, 3-[4-fluoro-5-[4-[4-[[4-[[(3S)-1-[[2-[3-[3-[(4-methyl-1,2,4-triazol-3-yl)methyl]oxetan-3-yl]phenyl]indazol-6-yl]methyl]-3-piperidyl]methyl]piperazin-1-yl]methyl]cyclohexoxy]-1-piperidyl]-1-oxo-isoindolin-2-yl]piperidine-2,6-dione] |
| > 500 nM | – | Cc1cc(N2CCC(CN3CCC4(CC3)CN(c3cc(C(F)(F)F)c5cn(-c6cccc([C@]7(Cc8nncn8C)C[C@@H](C#N)C7)c6)nc5c3)C4)CC2)c(F)c2c1C(=O)N(C1CCC(=O)NC1=O)C2 (some centres unmarked) [Example 154, 3-[3-[6-[7-[[1-[2-(2,6-dioxo-3-piperidyl)-4-fluoro-7-methyl-1-oxo-isoindolin-5-yl]-4-piperidyl]methyl]-2,7-diazaspiro[3.5]nonan-2-yl]-4-(trifluoromethyl)indazol-2-yl]phenyl]-3-[(4-methyl-1,2,4-triazol-3-yl)methyl]cyclobutanecarbonitrile] |
| > 500 nM | – | Cn1cnnc1C[C@]1(c2cccc(N3Cc4c(cc(CN5CCN(C[C@H]6CC[C@H](OC7CCN(c8ccc(F)c(C(=O)NC9CCC(=O)NC9=O)c8)CC7)CC6)CC5)cc4C(F)(F)F)C3=O)c2)C[C@H](C#N)C1 (some centres unmarked) [Example 202, N-(2,6-dioxopiperidin-3-yl)-2-fluoro-5-(4-{[(1r,4r)-4-({4-[(3-oxo-2-{3-[(1r,3r)-3-cyano-1-[(4-methyl-4H-1,2,4-triazol-3-yl)methyl]cyclobutyl]phenyl}-7-(trifluoromethyl)-2,3-dihydro-1H-isoindol-5-yl)methyl]piperazin-1-yl}methyl)cyclohexyl]oxy}piperidin-1-yl)benzamide] |
| 5 to 50 nM | < 35% | Cn1cnnc1C[C@]1(c2cccc(N3Cc4c(cc(CN5CCN(C[C@H]6CC[C@H](OC7CCN(c8cccc(C(=O)NC9CCC(=O)NC9=O)c8)CC7)CC6)CC5)cc4C(F)(F)F)C3=O)c2)C[C@H](C#N)C1 (some centres unmarked) [Example 198, N-(2,6-dioxopiperidin-3-yl)-3-(4-{[(1r,4r)-4-({4-[(3-oxo-2-{3-[(1r,3r)-3-cyano-1-[(4-methyl-4H-1,2,4-triazol-3-yl)methyl]cyclobutyl]phenyl}-7-(trifluoromethyl)-2,3-dihydro-1H-isoindol-5-yl)methyl]piperazin-1-yl}methyl)cyclohexyl]oxy}piperidin-1-yl)benzamide] |
| 5 to 50 nM | 35 to 70% | CC1c2nc(N3CCC(O[C@H]4CC[C@@H](CN5C[C@@H]6C[C@H]5CN6Cc5cc6c(c(C(F)(F)F)c5)CN(c5cccc(C7(Cc8nncn8C)CC7)c5)C6=O)CC4)CC3)ccc2C(=O)N1C1CCC(=O)NC1=O (stereo partly drawn) [Example 218, 3-[7-methyl-5-oxo-2-(4-{[(1r,4r)-4-{[(1S,4S)-5-{[2-(3-{1-[(4-methyl-4H-1,2,4-triazol-3-yl)methyl]cyclopropyl}phenyl)-3-oxo-7-(trifluoromethyl)-2,3-dihydro-1H-isoindol-5-yl]methyl}-2,5-diazabicyclo[2.2.1]heptan-2-yl]methyl}cyclohexyl]oxy}piperidin-1-yl)-5H,6H,7H-pyrrolo[3,4-b]pyridin-6-yl]piperidine-2,6-dione] |

From patent publication US20260184710A1, “CASITAS B-LINEAGE LYMPHOMA PROTOONCOGENE B (CBL-B) DEGRADING COMPOUNDS AND ASSOCIATED METHODS OF USE” (Arvinas Operations, Inc., priority 2022, published 2026)
